Measured values from ChEMBL document CHEMBL1135858, “Vitamin D(3): synthesis of seco-C-9,11-bisnor-17-methyl-1 alpha,25-dihydroxyvitamin D(3) analogues” (2002).

Assays:
MCF7 = experiment: Percent inhibition against MCF-7 cell line (50% dose response), relative to 1-alpha,25 (OH)2D3 (100% activity) determined in vitro; format: functional, Homo sapiens; design: scale not given: the % may be the effect or the level left
Keratinocyte = experiment: Percent inhibition against Keratinocytes cell line (50% dose response), relative to 1-alpha,25 (OH)2D3 (100% activity) determined in vitro; format: functional, Homo sapiens; design: scale not given: the % may be the effect or the level left
Mus musculus = experiment: Calcemic effect in vivo in vitamin D-replete normal NMRI mice by daily intraperitoneal injections of compound and 1-alpha,25 (OH)2D3 for 7 consecutive days; format: functional
HL-60 = experiment: Percent inhibition against HL-60 cell line (50% dose response), relative to 1-alpha,25 (OH)2D3 (100% activity) determined in vitro; format: functional, Homo sapiens; design: scale not given: the % may be the effect or the level left
[1] = molecular target: T1, Vitamin D3 receptor (Sus scrofa) (UniProt A3RGC1); experiment: (§1) Displacement of 50% binding of [3H]alpha,25 (OH)2D3 from pig intestinal mucosa Vitamin D3 receptor
T1 sequence (whole entry): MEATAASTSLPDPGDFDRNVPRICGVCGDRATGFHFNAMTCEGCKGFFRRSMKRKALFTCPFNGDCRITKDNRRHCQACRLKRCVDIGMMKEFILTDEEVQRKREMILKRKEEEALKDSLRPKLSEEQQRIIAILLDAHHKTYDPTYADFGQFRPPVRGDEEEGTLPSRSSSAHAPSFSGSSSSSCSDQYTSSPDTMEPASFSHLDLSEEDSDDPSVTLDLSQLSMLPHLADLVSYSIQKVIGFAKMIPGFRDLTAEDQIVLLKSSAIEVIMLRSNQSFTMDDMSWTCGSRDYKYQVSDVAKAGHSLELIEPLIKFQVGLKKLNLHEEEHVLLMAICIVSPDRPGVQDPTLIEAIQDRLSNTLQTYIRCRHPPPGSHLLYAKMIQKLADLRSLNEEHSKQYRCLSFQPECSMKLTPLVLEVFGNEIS

[2] = molecular target: T1, Vitamin D3 receptor (Sus scrofa); experiment: as §1; format: tissue-based

Row | Compound | Activity (MCF7) | Activity (Keratinocyte) | Activity (Mus musculus) | Activity (HL-60) | Relative affinity [1] | Relative affinity [2]
1 | CC(CC#CC(C)(C)O)C[C@@H](C)[C@@]1(C)CC[C@@H](/C=C/C=C2C[C@@H](O)C[C@H](O)C2)C1(C)C (stereo not given in full) | 70% | 200% | 0.12% | 85% | 7 | 
2 | CC(CC#CC(O)(C(F)(F)F)C(F)(F)F)C[C@@H](C)[C@@]1(C)CC[C@@H](/C=C/C=C2C[C@@H](O)C[C@H](O)C2)C1(C)C (stereo not given in full) | 1500% | 3000% | 3% | 300% | 50 | 
3 | CCC(O)(C#CCC(C)C[C@H](C)[C@@]1(C)CC[C@@H](/C=C/C=C2C[C@@H](O)C[C@H](O)C2)C1(C)C)CC (stereo not given in full) | 700% | 300% | 2% | 400% |  | 60
4 | CCC(O)(CC)CCCC(C)C[C@H](C)[C@@]1(C)CC[C@@H](/C=C/C=C2C[C@@H](O)C[C@H](O)C2)C1(C)C (stereo not given in full) | 7500% | 7000% | 20% | 500% |  | 60
5 | CC(CCCC(O)(C(F)(F)F)C(F)(F)F)C[C@@H](C)[C@@]1(C)CC[C@@H](/C=C/C=C2C[C@@H](O)C[C@H](O)C2)C1(C)C (stereo not given in full) | 600% | 1500% | 50% | 100% | 9 | 
6 | C=C1C(=CC=C[C@@H]2CC[C@](C)([C@@H](C)CC(C)CCCC(C)(C)O)C2(C)C)C[C@@H](O)C[C@@H]1O (stereo not given in full) | 2000% | 1000% | 8% | 800% | 85 | 
7 | C=C1C(=CC=C[C@@H]2CC[C@](C)([C@H](C)CC(C)CC#CC(O)(C(F)(F)F)C(F)(F)F)C2(C)C)C[C@@H](O)C[C@@H]1O (stereo not given in full) | 4500% | 3600% | 6% | 250% | 60 | 
8 | CC(CCCC(O)(C(F)(F)F)C(F)(F)F)C[C@H](C)[C@@]1(C)CC[C@@H](/C=C/C=C2C[C@@H](O)C[C@H](O)C2)C1(C)C (stereo not given in full) | 20000% | 16000% | 100% | 400% |  | 40
9 | C=C1/C(=C\C=C2/CCC[C@]3(C)[C@@H]([C@H](C)CCCC(C)(C)O)CC[C@@H]23)C[C@@H](O)C[C@@H]1O [CALCITRIOL] | 100% | 100% | 100% | 100% |  | 100
10 | CCC(O)(CC)CCCC(C)C[C@@H](C)[C@@]1(C)CC[C@@H](/C=C/C=C2C[C@@H](O)C[C@H](O)C2)C1(C)C (stereo not given in full) | 150% | 300% | 0.5% | 80% | 10 | 
11 | CC(CCCC(C)(C)O)C[C@@H](C)[C@@]1(C)CC[C@@H](/C=C/C=C2C[C@@H](O)C[C@H](O)C2)C1(C)C (stereo not given in full) | 8% | 80% | 0.12% | 10% | 3 | 
12 | C=C1C(=CC=C[C@@H]2CC[C@](C)([C@@H](C)CC(C)CCCC(O)(CC)CC)C2(C)C)C[C@@H](O)C[C@@H]1O (stereo not given in full) | 15000% | 7000% | 100% | 1250% |  | 85
13 | C=C1C(=CC=C[C@@H]2CC[C@](C)([C@@H](C)CC(C)CC#CC(O)(C(F)(F)F)C(F)(F)F)C2(C)C)C[C@@H](O)C[C@@H]1O (stereo not given in full) | 8000% | 15000% | 25% | 1250% |  | 75
14 | CC(CCCC(C)(C)O)C[C@H](C)[C@@]1(C)CC[C@@H](/C=C/C=C2C[C@@H](O)C[C@H](O)C2)C1(C)C (stereo not given in full) | 400% | 600% | 0.5% | 600% |  | 40
15 | C=C1C(=CC=C[C@@H]2CC[C@](C)([C@H](C)CC(C)CC#CC(O)(CC)CC)C2(C)C)C[C@@H](O)C[C@@H]1O (stereo not given in full) | 150% | 80% | 2% | 75% | 80 | 
16 | CC(CC#CC(O)(C(F)(F)F)C(F)(F)F)C[C@H](C)[C@@]1(C)CC[C@@H](/C=C/C=C2C[C@@H](O)C[C@H](O)C2)C1(C)C (stereo not given in full) | 6000% | 15000% | 25% | 400% |  | 50
17 | C=C1C(=CC=C[C@@H]2CC[C@](C)([C@@H](C)CC(C)CC#CC(C)(C)O)C2(C)C)C[C@@H](O)C[C@@H]1O (stereo not given in full) | 1250% | 3250% | 3% | 800% |  | 75
18 | CCC(O)(C#CCC(C)C[C@@H](C)[C@@]1(C)CC[C@@H](/C=C/C=C2C[C@@H](O)C[C@H](O)C2)C1(C)C)CC (stereo not given in full) | 85% | 85% | 0.25% | 50% | 50 | 
19 | C=C1C(=CC=C[C@@H]2CC[C@](C)([C@H](C)CC(C)CCCC(O)(C(F)(F)F)C(F)(F)F)C2(C)C)C[C@@H](O)C[C@@H]1O (stereo not given in full) | 2500% | 2400% | 10% | 150% | 30 | 
20 | C=C1C(=CC=C[C@@H]2CC[C@](C)([C@@H](C)CC(C)CC#CC(O)(CC)CC)C2(C)C)C[C@@H](O)C[C@@H]1O (stereo not given in full) | 750% | 800% | 25% | 600% |  | 80
21 | C=C1C(=CC=C[C@@H]2CC[C@](C)([C@H](C)CC(C)CCCC(O)(CC)CC)C2(C)C)C[C@@H](O)C[C@@H]1O (stereo not given in full) | 300% | 400% | 2% | 150% | 50 | 
22 | C=C1C(=CC=C[C@@H]2CC[C@](C)([C@H](C)CC(C)CCCC(C)(C)O)C2(C)C)C[C@@H](O)C[C@@H]1O (stereo not given in full) | 60% | 100% | 0.25% | 50% | 6 | 
23 | C=C1C(=CC=C[C@@H]2CC[C@](C)([C@@H](C)CC(C)CCCC(O)(C(F)(F)F)C(F)(F)F)C2(C)C)C[C@@H](O)C[C@@H]1O (stereo not given in full) | 30000% | 20000% | >100% | 400% |  | 60
24 | CC(CC#CC(C)(C)O)C[C@H](C)[C@@]1(C)CC[C@@H](/C=C/C=C2C[C@@H](O)C[C@H](O)C2)C1(C)C (stereo not given in full) | 1300% | 2000% | 4% | 350% |  | 40
25 | C=C1C(=CC=C[C@@H]2CC[C@](C)([C@H](C)CC(C)CC#CC(C)(C)O)C2(C)C)C[C@@H](O)C[C@@H]1O (stereo not given in full) | 600% | 500% | 3% | 80% | 60 | 
